From patent US10334851B2, “Herbicidal isoxazolo[5,4-B]pyridines” (BASF SE, priority 2010, dated 2019) come the findings set out here.

Holding throughout (type): in vivo
In assay [1] the test system is Abutilon theophrasti. In words: Greenhouse post-emergence treatment of Abutilon theophrasti (velvetleaf). As to conditions: scale 0 (no damage) to 100 (complete destruction); for pest or weed control at 3000 g/ha: Abutilon theophrasti. From the text: (§1) The seeds of the test plants were sown separately for each species. For the post-emergence treatment, the test plants were first grown to a height of 3 to 15 cm, depending on the plant habit, and only then treated with the active ingredients which had been suspended or emulsified in water. For this purpose, the test plants were either sown directly and grown in the same containers, or they were first grown separately as seedlings and transplanted into the test containers a few days prior to treatment. Depending on the species, the plants were kept at 10-25° C. or 20-35° C. The test period extended over 2 to 4 weeks. During this time, the plants were tended, and their response to the individual treatments was evaluated. Evaluation was carried out using a scale from 0 to 100. 100 means no emergence of the plants, or complete destruction of at least the aerial moieties, and 0 means no damage, or normal course of growth. A good herbicidal activity is given at values of at least 80 and a very good herbicidal activity is given at values of at least 90. The plants used in the greenhouse experiments belonged to the following species: [table]

Assay [2] has as its system Chenopodium album. In words: Greenhouse post-emergence treatment of Chenopodium album (fat-hen). As to conditions: for damage / pest or weed control at 1000 g/ha: application rate 1.0 kg/ha; for damage: scale 0 to 100.
Excerpt: as §1

The subject of assay [3] is Amaranthus retroflexus L. In words: Greenhouse post-emergence treatment of Amaranthus retroflexus L. (pigweed). As to conditions: for damage / pest or weed control at 1000 g/ha: application rate 1.0 kg/ha; for damage: scale 0 to 100.
Excerpt: as §1

The mark [4] stands for this setting: scale 0 to 100, read-out: damage.
The mark [5] stands for this setting: application rate 0.927 kg/ha, scale 0 to 100, read-out: damage.

`O=C(O)c1cc(C2CC2)nc2onc(-c3cccc(F)c3)c12` [I.2.31]: the damage in assay [1] (application rate 3.0 kg/ha) turned out to be 100%.

Take `CCCc1noc2nc(C3(F)CC3)cc(C(=O)O)c12` [I.7.63]: the damage in assay [2] and in assay [3] was 100% in each case.

As for `COc1noc2nc(C3CC3)cc(C(=O)O)c12` [I.2.53], the pest or weed control at 1000 g/ha in assay [2] (setting [4]) and in assay [3] (setting [4]) was 100% throughout.

Take `CSC(=O)c1cc(C2CC2)nc2onc(C)c12` [I.1.82]: the damage in assay [2] and in assay [3] was 98% in each case.

With `O=C(O)c1cc(C2CC2)nc2onc(-c3cccc(Cl)c3)c12` [I.2.24], in assay [1] (application rate 3.0 kg/ha), the damage worked out at 100%.

Consider `CCOc1noc2nc(C3CC3)cc(C(=O)O)c12` [I.2.54], for which the pest or weed control at 1000 g/ha in assay [2] (setting [4]) and in assay [3] (setting [4]) was 100% in each case.

For the molecule `O=C(O)c1cc(C2CC2)nc2onc(-c3ccccc3F)c12` [I.2.50], the damage in assay [2] and in assay [3] was 100% throughout.

In the case of `NC(=O)c1cc(C2CC2)nc2onc(C3CC3)c12` [I.4.63], the pest or weed control at 1000 g/ha in assay [2] (setting [4]) and in assay [3] (setting [4]) was 100% throughout.

Turning to `CSC(=O)c1cc(C2CC2)nc2onc(C3CC3)c12` [I.4.60], the pest or weed control at 927 g/ha in assay [2] (setting [5]) and in assay [3] (setting [5]) was 100% throughout.

Turning to `O=C(O)c1cc(C2(F)CC2)nc2onc(-c3ccc(OC(F)F)cc3)c12` [I.7.65], the damage in assay [2] and in assay [3] was 100% throughout.

For `CCCCSC(=O)c1cc(C2CC2)nc2onc(C)c12` [I.1.81], the damage in assay [2] and in assay [3] was 98% in each case.

Molecule `CCOCCOC(=O)c1cc(C2CC2)nc2onc(C)c12` [I.1.69] registered a damage in assay [1] (application rate 3.0 kg/ha) of 100%.

Turning to `O=C(O)c1cc(C2CC2)nc2onc(CCC3CCCCC3)c12` [I.2.30], the pest or weed control at 3000 g/ha in assay [1] (application rate 3.0 kg/ha) was found to be 100%.

In assay [1] (application rate 3.0 kg/ha), `COc1ccc(CCc2noc3nc(C4CC4)cc(C(=O)O)c23)cc1` [I.2.42] had a damage of 100%.

Regarding `CCCCOc1noc2nc(C3CC3)cc(C(=O)O)c12` [I.2.56], the damage in assay [2] and in assay [3] was 100% throughout.

In assay [1] (application rate 3.0 kg/ha), `Cc1cc(C(=O)O)c2c(C(C)C)noc2n1` [I.7.10] registered a pest or weed control at 3000 g/ha of 100%.

Molecule `O=C(O)c1cc(C2CC2)nc2onc(CCCc3cccs3)c12` [I.2.40] came in with a pest or weed control at 3000 g/ha in assay [1] (application rate 3.0 kg/ha) of 100%.

As for `COC(=O)c1cc(C2CC2)nc2onc(C3CCC3)c12` [I.4.4], the pest or weed control at 3000 g/ha in assay [1] (application rate 3.0 kg/ha) was 100%.

As for `O=C(O)c1cc(C2CC2)nc2onc(-c3ccc(OC(F)F)cc3)c12` [I.2.45], the damage in assay [2] and in assay [3] was 98% in each case.

For the molecule `Cc1noc2nc(C3CC3)cc(C(=O)OCC(F)F)c12` [I.1.65], the damage in assay [2] and in assay [3] was 100% in each case.

Turning to `CCCCOCCOCCOC(=O)c1cc(C2CC2)nc2onc(C)c12` [I.1.70], the damage in assay [1] (application rate 3.0 kg/ha) turned out to be 100%.

`CCCc1noc2nc(C3CC3)cc(C(=O)SC)c12` [I.4.59]: the damage in assay [2] was found to be 100%; in assay [3] it was 95%.

Molecule `CCc1cc(C(=O)O)c2c(C)noc2n1` [I.5.4] showed a pest or weed control at 3000 g/ha in assay [1] (application rate 3.0 kg/ha) of 85%.

`O=C(O)c1cc(C2CC2)nc2onc(-c3cc(F)cc(F)c3)c12` [I.2.44] showed a damage in assay [1] (application rate 3.0 kg/ha) of 100%.

The molecule `COC(=O)c1cc(C2CC2)nc2onc(CCC3CCCCC3)c12` [I.4.27] showed a pest or weed control at 3000 g/ha in assay [1] (application rate 3.0 kg/ha) of 100%.

In assay [1] (application rate 3.0 kg/ha), `COCc1noc2nc(C3CC3)cc(C(=O)O)c12` [I.2.38] returned a damage of 100%.

As for `O=C(O)c1cc(C2CC2)nc2onc(-c3cccc(C(F)(F)F)c3)c12` [I.2.21], in assay [1] (application rate 3.0 kg/ha), the damage is reported as 100%.

`O=C(O)c1cc(C2CC2(F)F)nc2onc(C3CC3)c12` (centres unmarked) [I.7.55]: the pest or weed control at 1000 g/ha in assay [2] (setting [4]) and in assay [3] (setting [4]) was 100% each time.

As for `O=C(O)c1cc(C2CC2)nc2onc(-c3ccc(Cl)cc3)c12` [I.2.17], the damage in assay [1] (application rate 3.0 kg/ha) came to 100%.

Regarding `O=C(O)c1cc(C2CC2)nc2onc(CCCc3ccccc3)c12` [I.2.37], the damage in assay [1] (application rate 3.0 kg/ha) turned out to be 90%.

For the molecule `O=C(O)c1cc(C2CC2)nc2onc(C3(F)CC3)c12` [I.2.46], the pest or weed control at 1000 g/ha in assay [2] (setting [4]) and in assay [3] (setting [4]) was 98% in each case.

On to `Cc1cc(C(=O)O)c2c(C3CC3)noc2n1` [I.7.13], for which the pest or weed control at 3000 g/ha in assay [1] (application rate 3.0 kg/ha) came out at 100%.

In the case of `Cc1noc2nc3c(c(C(=O)O)c12)CCC3` [I.8.1], in assay [1] (application rate 3.0 kg/ha), the pest or weed control at 3000 g/ha stood at 100%.

As to `CC(C)(C)Oc1noc2nc(C3CC3)cc(C(=O)O)c12` [I.2.58], the pest or weed control at 1000 g/ha in assay [2] (setting [4]) and in assay [3] (setting [4]) was 100% each time.

`CC(C)CCc1noc2nc(C3CC3)cc(C(=O)O)c12` [I.2.39] came in with a damage in assay [1] (application rate 3.0 kg/ha) of 100%.

In the case of `COC(=O)c1cc(C2CC2)nc2onc(CCc3ccccc3)c12` [I.4.5], the damage in assay [1] (application rate 3.0 kg/ha) is given as 85%.

`O=C(O)c1cc(C2CC2)nc2onc(-c3ccc(I)cc3)c12` [I.2.43] gave a damage in assay [1] (application rate 3.0 kg/ha) of 100%.

For `CCCCOc1ccc(-c2noc3nc(C4CC4)cc(C(=O)O)c23)cc1` [I.2.63], the damage in assay [2] and in assay [3] was 100% throughout.

`C=CCSC(=O)c1cc(C2CC2)nc2onc(C)c12` [I.1.80]: the damage in assay [2] and in assay [3] was 98% in each case.

Molecule `COc1cccc(-c2noc3nc(C4CC4)cc(C(=O)O)c23)c1` [I.2.22] had a damage in assay [1] (application rate 3.0 kg/ha) of 100%.

`CCCCCc1noc2nc(C3CC3)cc(C(=O)OC)c12` [I.4.25] came in with a damage in assay [1] (application rate 3.0 kg/ha) of 100%.

In assay [3], `CSC(=O)c1cc(C2CC2)nc2onc(-c3ccc(F)cc3)c12` [I.4.47] showed a damage of 95%.

For the molecule `CC(C)Cc1noc2nc(C3(F)CC3)cc(C(=O)O)c12` [I.7.68], the damage in assay [2] and in assay [3] was 100% throughout.

Consider `Cc1cc(C(=O)O)c2c(-c3ccco3)noc2n1` [I.7.38], for which the pest or weed control at 3000 g/ha in assay [1] (application rate 3.0 kg/ha) is 100%.

The molecule `CSC(=O)c1cc(C2CC2)nc2onc(CC(C)(C)C)c12` [I.4.45] yielded a damage in assay [3] of 100%.

On to `COC(=O)c1cc(C2(F)CC2)nc2onc(C3CC3)c12` [I.7.53], for which the pest or weed control at 1000 g/ha in assay [2] (setting [4]) came out at 90%; in assay [3] (setting [4]), 100%.

For `CON(C)C(=O)c1cc(C2CC2)nc2onc(C)c12` [I.1.83], the damage in assay [2] and in assay [3] was 100% each time.

On to `C=CCOC(=O)c1cc(C2CC2)nc2onc(C)c12` [I.1.62], for which the damage in assay [1] (application rate 2.0 kg/ha) is 100%.

On to `Cc1cc(C(=O)O)c2c(-c3ccccc3)noc2n1` [I.7.31], for which, in assay [1] (application rate 3.0 kg/ha), the damage turned out to be 98%.

Take `COc1ccc(-c2noc3nc(C4CC4(F)F)cc(C(=O)O)c23)cc1` (centres unmarked) [I.7.57]: the damage in assay [2] stood at 98%; in assay [3], 80%.

As for `CCOc1ccc(-c2noc3nc(C4CC4)cc(C(=O)O)c23)cc1` [I.2.62], the damage in assay [2] and in assay [3] was 100% throughout.

Consider `C=COCCOC(=O)c1cc(C2CC2)nc2onc(C)c12` [I.1.75], for which the damage in assay [1] (application rate 3.0 kg/ha) came to 100%.

Take `CC(C)Oc1noc2nc(C3CC3)cc(C(=O)O)c12` [I.2.57]: the pest or weed control at 1000 g/ha in assay [2] (setting [4]) and in assay [3] (setting [4]) was 100% throughout.

For `Cc1ccccc1-c1noc2nc(C3CC3)cc(C(=O)O)c12` [I.2.52], the damage in assay [2] was determined as 98%; in assay [3], 100%.

Turning to `CCCOc1noc2nc(C3CC3)cc(C(=O)O)c12` [I.2.55], the damage in assay [2] and in assay [3] was 100% throughout.

In assay [1] (application rate 3.0 kg/ha), `Cc1cc(C(=O)O)c2c(CC(C)(C)C)noc2n1` [I.7.41] came in with a damage of 100%.

In the case of `CCCc1noc2nc(C)cc(C(=O)O)c12` [I.7.39], the damage in assay [1] (application rate 3.0 kg/ha) came out at 100%.

Turning to `O=C(O)c1cc(C2CC2)nc2onc(-c3ccc(F)cc3)c12` [I.2.51], the damage in assay [2] and in assay [3] was 100% each time.

As for `CC(C)(C)c1ccc(-c2noc3nc(C4CC4)cc(C(=O)O)c23)cc1` [I.2.71], the damage in assay [2] and in assay [3] was 100% each time.

On to `COc1ccc(-c2noc3nc(C4(F)CC4)cc(C(=O)O)c23)cc1` [I.7.61], for which the damage in assay [2] and in assay [3] was 100% each time.

Molecule `O=C(O)c1cc(C2CC2)nc2onc(CC3CCCC3)c12` [I.2.27] had a pest or weed control at 3000 g/ha in assay [1] (application rate 3.0 kg/ha) of 100%.

For the molecule `COC(=O)c1cc(C2CC2)nc2onc(C3CC3)c12` [I.8.4], the pest or weed control at 1000 g/ha in assay [2] (setting [4]) and in assay [3] (setting [4]) was 100% throughout.

Turning to `CCc1ccc(-c2noc3nc(C4CC4)cc(C(=O)O)c23)cc1` [I.2.61], the damage in assay [2] and in assay [3] was 100% throughout.

`O=C(O)c1cc(C2CC2)nc2onc(C3CCCCC3)c12` [I.2.26] displayed a pest or weed control at 3000 g/ha in assay [1] (application rate 3.0 kg/ha) of 100%.

For `Cc1noc2nc(C3CC3)cc(C(=O)SCc3ccccc3)c12` [I.1.79], the damage in assay [2] was 85%; in assay [3], 98%.

Molecule `CC#CCOC(=O)c1cc(C2CC2)nc2onc(C)c12` [I.1.68] registered a damage in assay [1] (application rate 3.0 kg/ha) of 100%.

`O=C(O)c1cc(C2CC2(F)F)nc2onc(-c3ccccc3)c12` (centres unmarked) [I.7.56]: the damage in assay [2] turned out to be 90%; in assay [3], 80%.

In turn, `O=C(O)c1cc(C2CC2)nc2onc(-c3ccc(C(F)(F)F)cc3)c12` [I.2.18] yielded a damage in assay [1] (application rate 3.0 kg/ha) of 100%.
